In patent US11813245B2, “Sulcardine administration for treatment of acute atrial fibrillation” (HUYABIO International, LLC, priority 2020, dated 2023):
Where a name gives a salt, the structure may show the parent alone. Read-outs that look alike come from different tables or passages of the source. Values belong to the compound of their own block, whether it stands above or below them.

Legend:
healthy subjects [1] = experiment: Phase 1 single ascending dose trial of intravenous HBI-3000: continuous 12-lead Holter ECG, baseline and placebo subtracted (ΔΔ) ECG intervals at Cmax; assay type: in vivo, human
Protocol: (§1) HBI-3000 (sulcardine sulfate) was administered to human subjects according to the protocol provided in (Clinical Trials.gov Identifier: NCT03397641. That protocol is incorporated herein by reference in its entirety.
(§2) Objective: Provided herein are the safety, tolerability, pharmacokinetics and electrocardiogram (ECG) results of a Phase 1 single ascending dose trial of intravenous (IV) HBI-3000 in healthy subjects.
(§3) Methods: […] subjects were randomized to 6 cohorts of 8 subjects to receive 1 of 5 single ascending iv doses (Table 2) of HBI-3000 or placebo (6:2), with 2 cohorts receiving the 600 mg dose. Doses of HBI-3000 ranged from 20 mg (Cohort A), 60 mg (Cohort B), 180 mg (Cohort C), 360 mg (Cohort D), to 600 mg (Cohort E and F). Drug was a lyophilized powder, reconstituted to […] then diluted in saline for delivery via intravenous infusion as a 50 mL solution over 30 minutes.
Continuous 12-lead Holter ECG data were recorded at baseline and 11 time points thereafter. Mean baseline and placebo subtracted (ΔΔ) ECG intervals (QTcF, HR, PR, QRS, and P-wave duration [PDur]) and T-wave segments (J to T peak [JTp] and T peak to T end [TpTe]) were calculated at Cmax for each dose.
Table 2 summarizes ECG data at Cmax for each dose, as predicted by mixed-effects modeling. […] The increases in QRS and PDur are consistent with block of INa-Peak. The increase in the PR interval is consistent with the increase in PDur and with both INa-Peak and ICa,L inhibition. Prolongation of TpTe is consistent with IKr block, which would be expected, in isolation, to lengthen JTp as well. The observed dose-related reduction of JTp is likely due to counteraction of the effect of HBI-3000 on IKr through its inhibition of both INa-Late, and ICa,L.

[2] = Phase 1 single ascending dose trial of intravenous HBI-3000: pharmacokinetics; assay type: in vivo; conditions: human, plasma
Protocol: as §1, §2, §3
In some instances, the patient is administered 350 mg of HBI-3000.

healthy subjects [3] = experiment: Phase 1 single ascending dose trial of intravenous HBI-3000: safety and tolerability; assay type: in vivo, human; conditions: single ascending iv doses 20-600 mg
Protocol: as §1, §2, §3

INa-Peak = INa-Peak (Homo sapiens, UniProt Q14524); conditions: background statement; cited from earlier work
INa-Peak, sequence (Q14524 whole entry): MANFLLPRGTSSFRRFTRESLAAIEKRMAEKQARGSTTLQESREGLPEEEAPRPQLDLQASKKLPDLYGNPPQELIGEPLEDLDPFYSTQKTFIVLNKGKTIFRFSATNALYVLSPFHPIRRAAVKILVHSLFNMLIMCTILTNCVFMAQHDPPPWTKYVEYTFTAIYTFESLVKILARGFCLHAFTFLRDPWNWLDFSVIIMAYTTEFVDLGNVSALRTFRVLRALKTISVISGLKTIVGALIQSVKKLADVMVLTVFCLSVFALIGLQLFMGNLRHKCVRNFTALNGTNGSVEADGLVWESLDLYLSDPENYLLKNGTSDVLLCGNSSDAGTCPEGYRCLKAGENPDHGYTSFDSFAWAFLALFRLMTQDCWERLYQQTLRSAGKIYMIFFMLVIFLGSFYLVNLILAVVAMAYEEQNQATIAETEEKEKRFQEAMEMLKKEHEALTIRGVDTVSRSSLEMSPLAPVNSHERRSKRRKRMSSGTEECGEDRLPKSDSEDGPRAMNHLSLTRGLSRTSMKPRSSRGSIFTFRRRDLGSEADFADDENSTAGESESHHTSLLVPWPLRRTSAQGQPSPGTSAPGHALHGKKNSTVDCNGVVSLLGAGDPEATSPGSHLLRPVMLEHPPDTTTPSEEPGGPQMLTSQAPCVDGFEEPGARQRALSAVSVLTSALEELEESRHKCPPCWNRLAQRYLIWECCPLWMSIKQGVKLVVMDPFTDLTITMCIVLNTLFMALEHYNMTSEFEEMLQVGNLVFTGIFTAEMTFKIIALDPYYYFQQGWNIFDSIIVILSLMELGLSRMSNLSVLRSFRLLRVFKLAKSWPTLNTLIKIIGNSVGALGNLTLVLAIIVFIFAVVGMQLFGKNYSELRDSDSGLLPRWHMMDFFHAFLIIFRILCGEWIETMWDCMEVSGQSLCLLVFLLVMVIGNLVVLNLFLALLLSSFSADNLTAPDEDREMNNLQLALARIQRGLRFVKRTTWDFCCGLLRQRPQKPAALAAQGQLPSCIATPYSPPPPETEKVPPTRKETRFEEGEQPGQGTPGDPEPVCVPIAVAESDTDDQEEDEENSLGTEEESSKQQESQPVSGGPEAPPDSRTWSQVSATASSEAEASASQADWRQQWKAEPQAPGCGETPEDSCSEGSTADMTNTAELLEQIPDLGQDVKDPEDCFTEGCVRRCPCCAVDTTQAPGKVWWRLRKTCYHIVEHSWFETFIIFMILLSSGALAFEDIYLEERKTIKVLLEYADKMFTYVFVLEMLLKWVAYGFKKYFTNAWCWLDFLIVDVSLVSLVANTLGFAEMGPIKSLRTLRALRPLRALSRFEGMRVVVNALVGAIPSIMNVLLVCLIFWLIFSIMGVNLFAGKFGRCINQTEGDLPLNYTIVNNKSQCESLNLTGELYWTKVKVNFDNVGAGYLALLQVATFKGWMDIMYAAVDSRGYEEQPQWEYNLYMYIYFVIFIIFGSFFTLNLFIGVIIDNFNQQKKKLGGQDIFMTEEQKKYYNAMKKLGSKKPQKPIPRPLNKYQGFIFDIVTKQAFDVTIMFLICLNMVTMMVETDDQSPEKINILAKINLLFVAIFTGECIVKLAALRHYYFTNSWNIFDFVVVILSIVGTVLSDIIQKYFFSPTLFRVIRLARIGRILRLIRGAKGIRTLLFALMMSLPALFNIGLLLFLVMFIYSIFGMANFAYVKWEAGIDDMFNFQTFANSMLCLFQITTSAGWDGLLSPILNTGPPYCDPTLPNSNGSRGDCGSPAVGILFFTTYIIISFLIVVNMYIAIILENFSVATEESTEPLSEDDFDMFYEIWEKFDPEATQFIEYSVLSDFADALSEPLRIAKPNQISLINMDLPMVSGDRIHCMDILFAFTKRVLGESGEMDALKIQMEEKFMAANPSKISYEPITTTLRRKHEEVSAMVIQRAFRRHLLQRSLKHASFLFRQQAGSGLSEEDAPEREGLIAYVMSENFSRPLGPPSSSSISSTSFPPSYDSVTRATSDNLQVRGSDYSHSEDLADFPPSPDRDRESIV

INa-Late = INa-Late (Homo sapiens, UniProt Q14524); conditions: background statement; cited from earlier work
INa-Late, sequence (Q14524 whole entry): as above

ICa,L = ICa,L (Homo sapiens, UniProt Q13936); conditions: background statement; cited from earlier work
IKr = IKr (Homo sapiens, UniProt Q12809); conditions: background statement; cited from earlier work
[4] = Chen et al.; cited from earlier work
[5] = 20 mg single iv infusion over 30 min, at Cmax 135 ng/ml, N=6, concentration-effect regression model
[6] = 60 mg single iv infusion over 30 min, at Cmax 378 ng/ml, N=6, concentration-effect regression model
[7] = 180 mg single iv infusion over 30 min, at Cmax 1530 ng/ml, N=6, concentration-effect regression model
[8] = 360 mg single iv infusion over 30 min, at Cmax 3120 ng/ml, N=5, concentration-effect regression model
[9] = 600 mg single iv infusion over 30 min, at Cmax 5280 ng/ml, N=12, concentration-effect regression model
[10] = concentration-effect regression model, iv doses 20-600 mg
[11] = 20 mg single iv infusion over 30 min, healthy subjects, N=6
[12] = 60 mg single iv infusion over 30 min, healthy subjects, N=6
[13] = 180 mg single iv infusion over 30 min, healthy subjects, N=6
[14] = 360 mg single iv infusion over 30 min, healthy subjects, N=5
[15] = 600 mg single iv infusion over 30 min, healthy subjects, N=12

AUC(0-t) ([2]; intravenous, 350 mg, read-out: AUC (0-24)): 2880 ng·h/mL | AUC(0-t) ([2]; intravenous, 350 mg, read-out: AUC (0-last)): 3370 ng·h/mL | Cmax ([2]; intravenous, 350 mg, read-out: Cmax): 3080 ng/mL | AUC(0-inf) ([2]; intravenous, 350 mg dose): 3720 ng·h/mL | half-life ([2]; intravenous, 350 mg dose): 43 h | Tmax ([2]; intravenous, 350 mg dose, read-out: Tmax): 27 min | Cmax ([2]; iv, 20 mg, 20 mg single iv infusion over 30 min, N=6, as used for ΔΔECG model, read-out: Cmax (Table 2)): 135 ng/mL | AUC(0-t) ([2]; iv, 20 mg, 20 mg single iv infusion over 30 min, healthy subjects, N=6, read-out: AUC (0-24)): 89.7 ng·h/mL | AUC(0-t) ([2]; iv, 20 mg, 20 mg single iv infusion over 30 min, healthy subjects, N=6, read-out: AUC (0-last)): 86.2 ng·h/mL | Cmax ([2]; iv, 20 mg, 20 mg single iv infusion over 30 min, healthy subjects, N=6, read-out: Cmax): 131 ng/mL | Cmax ([2]; iv, 60 mg, 60 mg single iv infusion over 30 min, N=6, as used for ΔΔECG model, read-out: Cmax (Table 2)): 378 ng/mL | AUC(0-t) ([2]; iv, 60 mg, 60 mg single iv infusion over 30 min, healthy subjects, N=6, read-out: AUC (0-24)): 299 ng·h/mL | AUC(0-t) ([2]; iv, 60 mg, 60 mg single iv infusion over 30 min, healthy subjects, N=6, read-out: AUC (0-last)): 306 ng·h/mL | Cmax ([2]; iv, 60 mg, 60 mg single iv infusion over 30 min, healthy subjects, N=6, read-out: Cmax): 369 ng/mL | Cmax ([2]; iv, 180 mg, 180 mg single iv infusion over 30 min, N=6, as used for ΔΔECG model, read-out: Cmax (Table 2)): 1530 ng/mL | AUC(0-t) ([2]; iv, 180 mg, 180 mg single iv infusion over 30 min, healthy subjects, N=6, read-out: AUC (0-24)): 1270 ng·h/mL | AUC(0-t) ([2]; iv, 180 mg, 180 mg single iv infusion over 30 min, healthy subjects, N=6, read-out: AUC (0-last)): 1550 ng·h/mL | Cmax ([2]; iv, 180 mg, 180 mg single iv infusion over 30 min, healthy subjects, N=6, read-out: Cmax): 1430 ng/mL | Cmax ([2]; iv, 360 mg, 360 mg single iv infusion over 30 min, N=5, as used for ΔΔECG model, read-out: Cmax (Table 2)): 3120 ng/mL | AUC(0-t) ([2]; iv, 360 mg, 360 mg single iv infusion over 30 min, healthy subjects, N=5, read-out: AUC (0-24)): 2960 ng·h/mL | AUC(0-t) ([2]; iv, 360 mg, 360 mg single iv infusion over 30 min, healthy subjects, N=5, read-out: AUC (0-last)): 3470 ng·h/mL | Cmax ([2]; iv, 360 mg, 360 mg single iv infusion over 30 min, healthy subjects, N=5, read-out: Cmax): 3170 ng/mL | Cmax ([2]; iv, 600 mg, 600 mg single iv infusion over 30 min, N=12, as used for ΔΔECG model, read-out: Cmax (Table 2)): 5280 ng/mL | AUC(0-t) ([2]; iv, 600 mg, 600 mg single iv infusion over 30 min, healthy subjects, N=12, read-out: AUC (0-24)): 5810 ng·h/mL | AUC(0-t) ([2]; iv, 600 mg, 600 mg single iv infusion over 30 min, healthy subjects, N=12, read-out: AUC (0-last)): 6640 ng·h/mL | Cmax ([2]; iv, 600 mg, 600 mg single iv infusion over 30 min, healthy subjects, N=12, read-out: Cmax): 5580 ng/mL | AUC(0-inf) [2, 11]: 175 ng·h/mL | half-life [2, 11]: 0.62 h | Tmax ([2]; 20 mg single iv infusion over 30 min, healthy subjects, N=6, read-out: Tmax Mean): 25.2 min | AUC(0-inf) [2, 12]: 312 ng·h/mL | half-life [2, 12]: 9.16 h | Tmax ([2]; 60 mg single iv infusion over 30 min, healthy subjects, N=6, read-out: Tmax Mean): 22.8 min | AUC(0-inf) [2, 13]: 2050 ng·h/mL | half-life [2, 13]: 54.8 h | Tmax ([2]; 180 mg single iv infusion over 30 min, healthy subjects, N=6, read-out: Tmax Mean): 27.6 min | AUC(0-inf) [2, 14]: 3830 ng·h/mL | half-life [2, 14]: 43.7 h | Tmax ([2]; 360 mg single iv infusion over 30 min, healthy subjects, N=5, read-out: Tmax Mean): 27 min | AUC(0-inf) [2, 15]: 7580 ng·h/mL | half-life [2, 15]: 41.1 h | Tmax ([2]; 600 mg single iv infusion over 30 min, healthy subjects, N=12, read-out: Tmax Mean): 27.6 min
SMILES: COc1ccc(S(=O)(=O)NCc2cc(CN3CCCC3)c(O)c(CN3CCCC3)c2)cc1 [HBI-3000, sulcardine sulfate]
ΔΔHR (healthy subjects [1]; [5]): 1.74 bpm | ΔΔJTp (healthy subjects [1]; [5]): -2.87 ms | ΔΔPDur (healthy subjects [1]; [5]): 3.17 ms | ΔΔPR (healthy subjects [1]; [5]): 5.08 ms | ΔΔQRS (healthy subjects [1]; [5]): -0.08 ms | ΔΔQTcF (healthy subjects [1]; [5]): 1.40 ms | ΔΔTpTe (healthy subjects [1]; [5]): 1.95 ms | ΔΔHR (healthy subjects [1]; [6]): 2.21 bpm | ΔΔJTp (healthy subjects [1]; [6]): -5.28 ms | ΔΔPDur (healthy subjects [1]; [6]): 3.71 ms | ΔΔPR (healthy subjects [1]; [6]): 6.06 ms | ΔΔQRS (healthy subjects [1]; [6]): 0.54 ms | ΔΔQTcF (healthy subjects [1]; [6]): 2.35 ms | ΔΔTpTe (healthy subjects [1]; [6]): 2.20 ms | ΔΔHR (healthy subjects [1]; [7]): 4.44 bpm | ΔΔJTp (healthy subjects [1]; [7]): -15.09 ms | ΔΔPDur (healthy subjects [1]; [7]): 6.24 ms | ΔΔPR (healthy subjects [1]; [7]): 10.73 ms | ΔΔQRS (healthy subjects [1]; [7]): 3.50 ms | ΔΔQTcF (healthy subjects [1]; [7]): 6.89 ms | ΔΔTpTe (healthy subjects [1]; [7]): 3.37 ms | ΔΔHR (healthy subjects [1]; [8]): 7.70 bpm | ΔΔJTp (healthy subjects [1]; [8]): -24.60 ms | ΔΔPDur (healthy subjects [1]; [8]): 9.93 ms | ΔΔPR (healthy subjects [1]; [8]): 17.53 ms | ΔΔQRS (healthy subjects [1]; [8]): 7.81 ms | ΔΔQTcF (healthy subjects [1]; [8]): 13.50 ms | ΔΔTpTe (healthy subjects [1]; [8]): 5.07 ms | ΔΔHR (healthy subjects [1]; [9]): 12.75 bpm | ΔΔJTp (healthy subjects [1]; [9]): -28.10 ms | ΔΔPDur (healthy subjects [1]; [9]): 15.67 ms | ΔΔPR (healthy subjects [1]; [9]): 28.10 ms | ΔΔQRS (healthy subjects [1]; [9]): 14.50 ms | ΔΔQTcF (healthy subjects [1]; [9]): 23.77 ms | ΔΔTpTe (healthy subjects [1]; [9]): 7.72 ms | onset and loss of pharmacodynamic effect (healthy subjects [1]; about 400 mg to about 800 mg according to the protocol, human subjects): quickly effective and then quickly loses its effect | Slope, ΔΔHR (healthy subjects [1]; [10]): 0.0019 | Slope, ΔΔJTp (healthy subjects [1]; [10]): −0.0000 | Slope, ΔΔPDur (healthy subjects [1]; [10]): 0.0022 | Slope, ΔΔPR (healthy subjects [1]; [10]): 0.0040 | Slope, ΔΔQRS (healthy subjects [1]; [10]): 0.0026 | Slope, ΔΔQTcF (healthy subjects [1]; [10]): 0.0039 | Slope, ΔΔTpTe (healthy subjects [1]; [10]): 0.0010 | changes in ECG parameters (healthy subjects [1]; single ascending iv doses 20-600 mg, healthy subjects): dose-proportional changes in all ECG parameters | safety, tolerability (healthy subjects [3]): well tolerated with no dose limiting adverse events or arrhythmias observed | in vitro inhibitory effects on INa-Peak (INa-Peak): relatively balanced in vitro inhibitory effects | in vitro inhibitory effects on INa-Late (INa-Late): relatively balanced in vitro inhibitory effects | in vitro inhibitory effects on ICa,L (ICa,L): relatively balanced in vitro inhibitory effects | in vitro inhibitory effects on IKr (IKr): relatively balanced in vitro inhibitory effects

SMILES: COc1ccc(S(=O)(=O)NCc2cc(CN3CCCC3)c(O)c(CN3CCCC3)c2)cc1 [sulcardine, N-[4-hydroxy-3,5-bis(1-pyrrolidinylmethyl)benzyl]-4-methoxybenzenesulfonamide]
expected half-life for oral administration [4]: about 16 hours
